Assay [1] relates to DT-R cells (pRRE3-luc-transfected v-ki-ras-transformed NIH3T3 cells); signal derived from Ras oncogene products. The assay is described as follows: Inhibitory effect against cellular signaling derived from Ras oncogene products: luciferase reporter, dissociation of DT-R from DT-C activity (MAC). It is filed as cell-based, mouse. The settings on record: minimal tested concentration at which luciferase activities of DT-C cells and DT-R cells dissociated. The gist of the method:
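Value is a minimal active concentration: lowest dose where Ras-responsive reporter (DT-R) luciferase diverges from SV40-minimal-promoter control (DT-C). Both transfected v-Ki-ras NIH3T3 lines received 3-fold serial dilutions for 24 h at 37 °C in 10% FCS medium before lysis and luminometry.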

In assay [2] the test system is human squamous lung cancer Ma44. The assay is described as follows: In vitro cell growth inhibition test, MTT assay. The settings on record: MTT assay 4 days after compound addition. It is filed as cell-based. In a few lines:
(§1)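 Panel of human carcinoma lines, including PANC-1, assessed in vitro; inhibition of cell growth quantified via MTT.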
(In general: Tetrazolium assays rely on reduction of a dye to a coloured formazan, in cell work by metabolically active cells.)

A further assay deals with human colon cancer HT29. The assay is described as follows: In vitro cell growth inhibition test, MTT assay. It is filed as cell-based. The settings on record: MTT assay 4 days after compound addition. In a few lines:
as §1

Assay [3] deals with human lung adenocarcinoma A549. The assay is described as follows: In vitro cell growth inhibition test, MTT assay. The note with it: MTT assay 4 days after compound addition. It is filed as cell-based. In a few lines:
as §1

In assay [4] the test system is human pancreas cancer PANC-1. The assay can be described thus: In vitro cell growth inhibition test, MTT assay. It is filed as cell-based. The settings on record: MTT assay 4 days after compound addition. In a few lines:
as §1

For assay [5], the system named is human squamous lung cancer RERF-RC-AI. The assay is described as follows: In vitro cell growth inhibition test, MTT assay. It is filed as cell-based. The settings on record: MTT assay 4 days after compound addition. In a few lines: as §1
The test system of assay [6] is DT-C cells (pGV-P-transfected v-ki-ras-transformed NIH3T3 cells). The assay can be described thus: Luciferase activity in control DT-C cells (IC50-C): non-specific transcription-inhibitory effect or cytotoxicity. It is filed as cell-based, mouse. The settings on record: tested concentration nearest to 50% inhibition in DT-C cells; index of non-specific transcription inhibition or cytotoxicity. The gist of the method:
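Luciferase from an SV40 minimal promoter was read in DT-C cells (2500 cells/well) 24 h after compound addition at […] to 0.51 ng/ml in 3-fold steps. IC50-C is the tested concentration nearest 50% inhibition.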

Here are results for 9 compounds from US6420367B1, “Pyrimidine derivatives exhibiting antitumor activity” (Shionogo & Co., Ltd., priority 1998, dated 2002).

Each structure is given as a SMILES string. In brackets after ≈: the same amount, converted by molar mass.

On to `CNC(=Nc1nc(C)ncc1CSc1nnc(-c2ccc(N)cc2)o1)NC` [Compound A-147], for which the “MAC (Minimal Active Concentration)” value in assay [1] is 0.123 µg/mL. The “IC50, Ma44” value in assay [2] worked out at 0.071 µg/mL (≈ 0.185 µM). In addition, the “IC50, HT29” value in the assay with human colon cancer HT29 was 0.008 µg/mL (≈ 0.0208 µM). The “IC50, A549” value in assay [3] is 0.1 µg/mL (≈ 0.26 µM). Further, the “IC50, PANC-1” value in assay [4] turned out to be 0.018 µg/mL (≈ 0.0468 µM). In addition, the “IC50, RERF-LC-AI” value in assay [5] worked out at 0.008 µg/mL (≈ 0.0208 µM). In assay [6], the IC50-C is more than 10 µg/mL.
With `CCCNC(=Nc1nc(CC)ncc1CSc1nnc(-c2ccc([N+](=O)[O-])cc2)o1)NCC` [Compound A-149], in assay [1], the “MAC (Minimal Active Concentration)” value worked out at 0.123 µg/mL. For the same compound, in assay [2], the “IC50, Ma44” value turned out to be 0.085 µg/mL (≈ 0.181 µM). Moreover, the “IC50, HT29” value in the assay on human colon cancer HT29 stood at 0.034 µg/mL (≈ 0.0723 µM). For the same compound, the “IC50, A549” value in assay [3] was determined as 0.025 µg/mL (≈ 0.0531 µM). Further, the “IC50, PANC-1” value in assay [4] came out at 0.041 µg/mL (≈ 0.0871 µM). In addition, in assay [5], the “IC50, RERF-LC-AI” value is 0.026 µg/mL (≈ 0.0553 µM). In assay [6], this compound gave an IC50-C of 3.33 µg/mL (≈ 7.08 µM).
As for `CCc1ncc(CSc2nnc(-c3ccc([N+](=O)[O-])cc3)o2)c(N=C(NC)NC)n1` [Compound A-152], the “MAC (Minimal Active Concentration)” value in assay [1] turned out to be 0.123 µg/mL. Further, the “IC50, Ma44” value in assay [2] worked out at 0.039 µg/mL (≈ 0.091 µM). Further, the “IC50, HT29” value with human colon cancer HT29 is 0.082 µg/mL (≈ 0.191 µM). Besides, the “IC50, A549” value in assay [3] turned out to be 0.069 µg/mL (≈ 0.161 µM). The “IC50, PANC-1” value in assay [4] was found to be 0.013 µg/mL (≈ 0.0303 µM). In addition, in assay [5], the “IC50, RERF-LC-AI” value was 0.006 µg/mL (≈ 0.014 µM). The IC50-C in assay [6] was more than 10 µg/mL.
Turning to `CCc1ncc(CSc2nnc(-c3ccc(N)cc3)o2)c(N=C(NC)NC)n1` [Compound A-153], the “MAC (Minimal Active Concentration)” value in assay [1] was 0.0412 µg/mL. Besides, in assay [2], the “IC50, Ma44” value amounted to 0.089 µg/mL (≈ 0.223 µM). Moreover, the “IC50, HT29” value in the assay with human colon cancer HT29 worked out at 0.015 µg/mL (≈ 0.0376 µM). Besides, in assay [3], the “IC50, A549” value was 0.067 µg/mL (≈ 0.168 µM). For the same compound, the “IC50, PANC-1” value in assay [4] amounted to 0.022 µg/mL (≈ 0.0552 µM). Also, in assay [5], the “IC50, RERF-LC-AI” value came out at 0.011 µg/mL (≈ 0.0276 µM). In assay [6], the IC50-C is more than 10 µg/mL.
As to `CCNC(=Nc1nc(C)ncc1CSc1nnc(-c2ccc([N+](=O)[O-])cc2OC)o1)NCC` [Compound A-161], the “MAC (Minimal Active Concentration)” value in assay [1] was determined as 0.0412 µg/mL. Besides, in assay [2], the “IC50, Ma44” value was determined as 0.0071 µg/mL (≈ 0.015 µM). For the same compound, in the assay with human colon cancer HT29, the “IC50, HT29” value was 0.0055 µg/mL (≈ 0.0116 µM). Besides, the “IC50, A549” value in assay [3] came out at 0.012 µg/mL (≈ 0.0254 µM). The “IC50, PANC-1” value in assay [4] was 0.0053 µg/mL (≈ 0.0112 µM). The “IC50, RERF-LC-AI” value in assay [5] was 0.0068 µg/mL (≈ 0.0144 µM). Also, the IC50-C in assay [6] was more than 10 µg/mL.
Turning to `CNC(=Nc1nc(C)ncc1CSc1nnc(-c2ccc([N+](=O)[O-])cc2OC)o1)NC` [Compound A-162], the “MAC (Minimal Active Concentration)” value in assay [1] came out at 0.123 µg/mL. In addition, in assay [2], the “IC50, Ma44” value amounted to 0.014 µg/mL (≈ 0.0315 µM). In addition, the “IC50, HT29” value with human colon cancer HT29 was 0.0067 µg/mL (≈ 0.0151 µM). Further, in assay [3], the “IC50, A549” value was 0.028 µg/mL (≈ 0.063 µM). The “IC50, PANC-1” value in assay [4] turned out to be 0.0093 µg/mL (≈ 0.0209 µM). Besides, in assay [5], the “IC50, RERF-LC-AI” value was 0.0085 µg/mL (≈ 0.0191 µM). The compound further came in with an IC50-C in assay [6] of more than 10 µg/mL.
On to `CCNC(=Nc1nc(C)ncc1CSc1nnc(-c2ccc(N)cc2)o1)NC` [Compound A-168], for which, in assay [1], the “MAC (Minimal Active Concentration)” value turned out to be 0.0412 µg/mL. Also, the “IC50, Ma44” value in assay [2] turned out to be 0.017 µg/mL (≈ 0.0427 µM). Further, the “IC50, HT29” value in the assay with human colon cancer HT29 amounted to 0.0055 µg/mL (≈ 0.0138 µM). In addition, the “IC50, A549” value in assay [3] amounted to 0.012 µg/mL (≈ 0.0301 µM). Besides, in assay [4], the “IC50, PANC-1” value came out at 0.0059 µg/mL (≈ 0.0148 µM). The “IC50, RERF-LC-AI” value in assay [5] was 0.0028 µg/mL (≈ 0.00703 µM). For the same compound, the IC50-C in assay [6] was more than 10 µg/mL.
Consider `CNC(=Nc1nc(C)ncc1CSc1nnc(-c2ccc([N+](=O)[O-])cc2)o1)NC(C)C` [Compound A-170], for which, in assay [1], the “MAC (Minimal Active Concentration)” value is less than 0.000508 µg/mL. Further, the “IC50, Ma44” value in assay [2] was found to be 0.0054 µg/mL (≈ 0.0122 µM). Besides, the “IC50, HT29” value in the assay with human colon cancer HT29 turned out to be 0.0077 µg/mL (≈ 0.0174 µM). Moreover, the “IC50, A549” value in assay [3] was 0.014 µg/mL (≈ 0.0316 µM). The “IC50, PANC-1” value in assay [4] was 0.0065 µg/mL (≈ 0.0147 µM). In addition, in assay [5], the “IC50, RERF-LC-AI” value is 0.0027 µg/mL (≈ 0.0061 µM). For the same compound, in assay [6], the IC50-C was more than 10 µg/mL.
As for `CNC(=Nc1ncncc1CSc1nnc(-c2ccc(N)cc2)o1)NC` [Compound A-174], the “MAC (Minimal Active Concentration)” value in assay [1] came to 0.37 µg/mL. In addition, the “IC50, Ma44” value in assay [2] stood at 0.076 µg/mL (≈ 0.205 µM). In addition, the “IC50, HT29” value with human colon cancer HT29 is 0.012 µg/mL (≈ 0.0324 µM). The “IC50, A549” value in assay [3] was 0.032 µg/mL (≈ 0.0864 µM). In assay [4], the “IC50, PANC-1” value was found to be 0.014 µg/mL (≈ 0.0378 µM). In assay [5], the “IC50, RERF-LC-AI” value worked out at 0.0067 µg/mL (≈ 0.0181 µM). Besides, the IC50-C in assay [6] was more than 10 µg/mL.
